Source: patent US7863312B2, “Pyrazolidinone compounds as ligands of the prostaglandin EP2 and/or EP4 receptors” (Merck Serono SA, priority 2001, dated 2011)

Columns and labels:
EP2 receptor = EP2 receptor (Homo sapiens, UniProt P43116); experiment: EP2 receptor binding assay (3H-PGE2 SPA); conditions: EP2 receptor membranes, 20 nM 3H-PGE2, pH 6.0, 2 hrs room temperature
Protocol: Compounds of the invention were tested in an EP2 receptor binding assay of the following protocol. As referred to herein, the term a “standard EP2 receptor binding assay” designates the following protocol.

[1] = biological target: T1, HEK293-EBNA cells transfected with pCEP4-hEP2 receptors (Homo sapiens, UniProt P43116); experiment: EP2 cAMP assay; assay type: cell-based; conditions: total cAMP, 1 hour 37° C.
T1 construct: expressed in transfected cells; host or cells: HEK293-EBNA
Protocol: (§1) Compounds of the invention were tested in a total cAMP assay as follows. HEK293-EBNA cells transfected with pCEP4-hEP2 receptors were seeded in 96 well opaque plate (Costar #3917) at 4×10^4 cells per well in 100 μl of culture medium (D-MEM/F12 supplemented with 10% FBS, […] L-glutamine, and 250 μg/ml of hygromycin; all from GibcoBRL) and incubated at 37° C. After overnight incubation, the medium was removed from each well and replaced with 45 μl of assay medium consisted of phenol red free D-MEM/F-12, 0.1% BSA (GibcoBRL) and 0.1 mM3-isobutyl-1-methyl-xanthine (Sigma). After 15 minutes of incubation at 37° C., 16-16-dimethyl PGE-2 or compounds at desired concentrations in 20 μl of assay medium were added to cells and further incubated at 37° C. for 1 hour. Total cAMP (intra- and extra-cellular) was measured by using a cAMP-screen ELISA System (Tropix, #CS1000).

[2] = biological target: T2, HEK293-EBNA cells transfected with pCEP4-hEP4 receptors (Homo sapiens, UniProt P35408); experiment: EP4 cAMP assay; assay type: cell-based; conditions: total cAMP, 1 hour 37° C.
T2 construct: expressed in transfected cells; host or cells: HEK293-EBNA
Protocol: as §1, with “pCEP4-hEP4” for “pCEP4-hEP2”, “compounds of the invention” for “compounds”
In Table II, the tested compound is identified both by the corresponding synthetic Example number above as well as structure of the tested compound.

EP4 receptor = EP4 receptor (Homo sapiens, UniProt P35408); experiment: EP4 receptor binding assay (3H-PGE2 SPA); conditions: EP4 receptor membranes, 20 nM 3H-PGE2, pH 6.0, 2 hrs room temperature
Protocol: Compounds of the invention were tested in an EP4 receptor binding assay of the following protocol.

T1 sequence (P43116 whole entry): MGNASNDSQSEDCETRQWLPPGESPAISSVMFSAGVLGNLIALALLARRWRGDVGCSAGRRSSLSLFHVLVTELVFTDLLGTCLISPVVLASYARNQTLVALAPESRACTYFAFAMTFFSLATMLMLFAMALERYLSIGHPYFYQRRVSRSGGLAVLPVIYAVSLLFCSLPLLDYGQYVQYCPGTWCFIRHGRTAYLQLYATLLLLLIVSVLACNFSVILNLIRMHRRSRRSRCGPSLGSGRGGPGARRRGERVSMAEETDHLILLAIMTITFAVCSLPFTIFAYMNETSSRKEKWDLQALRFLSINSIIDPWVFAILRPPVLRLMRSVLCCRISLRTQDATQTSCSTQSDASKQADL
EP2 receptor, sequence (P43116 whole entry): as above
EP4 receptor, sequence (P35408 whole entry): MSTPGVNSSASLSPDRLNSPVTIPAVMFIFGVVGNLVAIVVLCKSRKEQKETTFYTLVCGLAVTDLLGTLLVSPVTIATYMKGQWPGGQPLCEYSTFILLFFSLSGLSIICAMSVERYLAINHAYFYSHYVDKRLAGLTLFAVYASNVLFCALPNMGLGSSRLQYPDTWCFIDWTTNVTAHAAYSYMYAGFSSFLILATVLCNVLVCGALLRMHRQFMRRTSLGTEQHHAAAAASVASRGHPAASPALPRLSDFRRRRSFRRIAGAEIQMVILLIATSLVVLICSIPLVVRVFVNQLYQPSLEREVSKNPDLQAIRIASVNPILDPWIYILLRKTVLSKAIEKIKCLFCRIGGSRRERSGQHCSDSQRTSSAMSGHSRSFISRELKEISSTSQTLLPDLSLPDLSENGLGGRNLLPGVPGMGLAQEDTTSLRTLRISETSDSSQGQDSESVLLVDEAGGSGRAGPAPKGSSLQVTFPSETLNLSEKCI
T2 sequence (P35408 whole entry): as above

| SMILES | Ki (EP2 receptor) [µM] | EC50 [1] [µM] | EC50 [2] [µM] | Ki (EP4 receptor) [µM] |
| --- | --- | --- | --- | --- |
| CC(C)CCC(C)(O)CCCN1CCC(=O)N1CCc1ccc(C(=O)O)cc1 (centres unmarked) [Example 11, 4-{2-[2-(4-hydroxy-4,7-dimethyloctyl)-5-oxopyrazolidin-1-yl]ethyl}benzoic acid] | 20.2 | 10 | – | – |
| CCC1(C(O)CCCN2CCC(=O)N2CCc2ccc(C(=O)O)cc2)CCC1 (centres unmarked) [Example 19, 4-(2-{2-[4-(1-ethylcyclobutyl)-4-hydroxybutyl}-5-oxopyrazolidin-1-yl}ethyl)benzoic acid] | 0.75 | 0.393 | – | – |
| O=C(O)c1ccc(CCN2C(=O)CCN2CCC(O)Cc2ccccc2)cc1 (centres unmarked) [Example 21, 4-{2-[2-(3-hydroxy-4-phenylbutyl)-5-oxopyrazolidin-1-yl]ethyl}benzoic acid] | 6.2 | – | – | 0.068 |
| O=C(O)c1ccc(CCN2C(=O)CCN2CCC(O)Cc2cccc(OC(F)(F)F)c2)cc1 (centres unmarked) [Example 24, 4-[2-(2-{3-hydroxy-4-[3-(trifluoromethoxy)phenyl]butyl}-5-oxopyrazolidin-1-yl)ethyl]benzoic acid] | 2.83 | – | – | 0.059 |
| CCCCCC(O)CCCN1CCC(=O)N1CCc1ccc(C(=O)O)cc1 (stereo in doubt) [Example 15, 4-{2-[2-((4R)-hydroxynonyl)-5-oxopyrazolidin-1-yl]ethyl}benzoic acid] | 3.26 | 1.5 | – | – |
| O=C(O)c1ccc(CCN2C(=O)CCN2CCC(O)Cc2cccc(C(F)(F)F)c2)cc1 (centres unmarked) [Example 26, 4-[2-(2-{3-hydroxy-4-[3-(trifluoromethyl)phenyl]butyl}-5-oxopyrazolidin-1-yl)ethyl]benzoic acid] | 6.65 | 17.6 | – | – |
| CCCCC(O)CCCN1CCC(=O)N1CCc1ccc(C(=O)O)cc1 (centres unmarked) [Example 6, 4-{2-[2-(4-hydroxyoctyl)-5-oxopyrazolidin-1-yl]ethyl}benzoic acid] | 5.66 | 1.4 | – | – |
| CC(c1ccccc1)C(O)CCN1CCC(=O)N1CCc1ccc(C(=O)O)cc1 (stereo in doubt) [Example 30, 4-(2-{2-[(4R)-3-hydroxy-4-phenylpentyl]-5-oxopyrazolidin-1-yl}ethyl)benzoic acid] | 5.13 | – | – | 0.093 |
| O=C(O)c1ccc(CCN2C(=O)CCN2CCC(O)Cc2cccc(Cl)c2)cc1 (centres unmarked) [Example 29, 4-(2-{2-[4-(3-chlorophenyl)-3-hydroxybutyl]-5-oxopyrazolidin-1-yl}ethyl)benzoic acid] | 5.69 | – | – | 0.018 |
| CCCCCC(O)CCCN1CCC(=O)N1CCc1ccc(C(=O)O)cc1 (centres unmarked) [Example 3, 4-{2-[2-(4-hydroxynonyl)-5-oxopyrazolidin-1-yl]ethyl}benzoic acid] | 2.44 | 1.3 | – | 2 |

Second part, the molecule after the results:

| Ki (EP2 receptor) [µM] | EC50 [1] [µM] | EC50 [2] [µM] | Ki (EP4 receptor) [µM] | SMILES |
| --- | --- | --- | --- | --- |
| 0.495 | 0.461 | – | – | CCCCC(O)(CC)CCCN1CCC(=O)N1CCc1ccc(C(=O)O)cc1 (centres unmarked) [Example 9, 4-{2-[2-(4-ethyl-4-hydroxyoctyl)-5-oxopyrazolidin-1-yl]ethyl}benzoic acid] |
| 2.2 | 0.595 | 0.005 | 0.25 | CCCCCC(O)CCN1CCC(=O)N1CCc1ccc(C(=O)O)cc1 (centres unmarked) [Example 1, 4-[2-(2-(3-hydroxyoctyl)-5-oxopyrazolidin-1-yl)ethyl]benzoic acid] |
| 28.9 | 5.3 | – | – | CCCC(C)(O)CCCN1CCC(=O)N1CCc1ccc(C(=O)O)cc1 (centres unmarked) [Example 10, 4-{2-[2-(4-hydroxy-4-methylheptyl)-5-oxopyrazolidin-1-yl]ethyl}benzoic acid] |
| 17.2 | 2.6 | – | – | CCCCCC(O)/C=C\CN1CCC(=O)N1CCc1ccc(C(=O)O)cc1 (centres unmarked) [Example 4, 4-(2-{2-[(2Z)-4-hydroxynon-2-enyl]-5-oxopyrazolidin-1-yl}ethyl)benzoic acid] |
| 0.61 | 0.578 | – | – | O=C(O)c1ccc(CCN2C(=O)CCN2CCCC(O)C2(CC3CC3)CCC2)cc1 (centres unmarked) [Example 18, 4-[2-(2-{4-[1-(cyclopropylmethyl)cyclobutyl]-4-hydroxybutyl}-5-oxopyrazolidin-1-yl)ethyl]benzoic acid] |
| 5.16 | 2.1 | – | – | CCCC(C)C(O)CCCN1CCC(=O)N1CCc1ccc(C(=O)O)cc1 (centres unmarked) [Example 8, 4-{2-[2-(4-hydroxy-5-methyloctyl)-5-oxopyrazolidin-1-yl]ethyl}benzoic acid] |
| 28.6 | 9.7 | – | – | CC(C)CC(O)CCCN1CCC(=O)N1CCc1ccc(C(=O)O)cc1 (centres unmarked) [Example 7, 4-{2-[2-(4-hydroxy-6-methylheptyl)-5-oxopyrazolidin-1-yl]ethyl}benzoic acid] |
| 25.9 | 12.5 | – | – | CCCCCC(O)/C=C/CN1CCC(=O)N1CCc1ccc(C(=O)O)cc1 (centres unmarked) [Example 5, 4-(2-{2-[(2E)-4-hydroxynon-2-enyl]-5-oxopyrazolidin-1-yl}ethyl)benzoic acid] |
| 0.475 | 1.6 | – | – | CCCCCC(C)(O)CCCN1CCC(=O)N1CCc1ccc(C(=O)O)cc1 (centres unmarked) [Example 16, 4-{2-[2-(4-Hydroxy-4-methylnonyl)-5-oxopyrazolidin-1-yl]-ethyl}-benzoic acid] |
| 7.09 | – | – | 0.095 | CC(c1ccccc1)C(O)CCN1CCC(=O)N1CCc1ccc(C(=O)O)cc1 (stereo in doubt) [Example 27, 4-(2-{2-[(4S)-3-hydroxy-4-phenylpentyl]-5-oxopyrazolidin-1-yl}ethyl)benzoic acid] |
| 1.86 | 0.566 | 0.01 | 0.566 | CCCCCC(O)CCCN1CCC(=O)N1CCc1ccc(C(=O)O)cc1 (stereo in doubt) [Example 14, 4-{2-[2-((4S)-hydroxynonyl)-5-oxopyrazolidin-1-yl]ethyl}benzoic acid] |
| 4.41 | 15 | 0.277 | 2 | CC(C)CC(O)CCN1CCC(=O)N1CCc1ccc(C(=O)O)cc1 (centres unmarked) [Example 12, 4-{2-[2-(3-hydroxy-5-methylhexyl)-5-oxopyrazolidin-1-yl]ethyl}benzoic acid] |
| 2.76 | 5 | – | 6 | CCCC(C)C(O)CCN1CCC(=O)N1CCc1ccc(C(=O)O)cc1 (centres unmarked) [Example 13, 4-{2-[2-(3-hydroxy-4-methylheptyl)-5-oxopyrazolidin-1-yl]ethyl}benzoic acid] |
| – | – | – | 0.376 | O=C(O)c1ccc(CCN2C(=O)CCN2CCC(O)Cc2ccc3c(c2)OCO3)cc1 (centres unmarked) [Example 28, 4-(2-{2-[4-(1,3-benzodioxol-5-yl)-3-hydroxybutyl]-5-oxopyrazolidin-1-yl}ethyl)benzoic acid] |
| > 50 | > 50 | – | – | CCCCCC(O)C#CCN1CCC(=O)N1CCc1ccc(C(=O)O)cc1 (centres unmarked) [Example 2, 4-{2-[2-(4-hydroxynon-2-ynyl)-5-oxopyrazolidin-1-yl]ethyl}benzoic acid] |
| 6.29 | – | – | 0.036 | O=C(O)c1ccc(CCN2C(=O)CCN2CCC(O)Cc2cccc(F)c2)cc1 (centres unmarked) [Example 25, 4-(2-{2-[4-(3-fluorophenyl)-3-hydroxybutyl]-5-oxopyrazolidin-1-yl}ethyl)benzoic acid] |
